Measured values taken from ChEMBL document CHEMBL5653615 (J Biol Chem, 2013).

Assays:
[1] = target: Serine/threonine-protein kinase MARK2 (Homo sapiens) (UniProt Q7KZI7); experiment: Inhibition of human PAR-1Ba at 18.6 nM by HotSpot assay relative to control
[2] = target: T1, Dual specificity tyrosine-phosphorylation-regulated kinase 2 (Homo sapiens) (UniProt Q92630); experiment: Inhibition of human DYRK2 at 18.6 nM by HotSpot assay relative to control
T1 sequence (whole entry): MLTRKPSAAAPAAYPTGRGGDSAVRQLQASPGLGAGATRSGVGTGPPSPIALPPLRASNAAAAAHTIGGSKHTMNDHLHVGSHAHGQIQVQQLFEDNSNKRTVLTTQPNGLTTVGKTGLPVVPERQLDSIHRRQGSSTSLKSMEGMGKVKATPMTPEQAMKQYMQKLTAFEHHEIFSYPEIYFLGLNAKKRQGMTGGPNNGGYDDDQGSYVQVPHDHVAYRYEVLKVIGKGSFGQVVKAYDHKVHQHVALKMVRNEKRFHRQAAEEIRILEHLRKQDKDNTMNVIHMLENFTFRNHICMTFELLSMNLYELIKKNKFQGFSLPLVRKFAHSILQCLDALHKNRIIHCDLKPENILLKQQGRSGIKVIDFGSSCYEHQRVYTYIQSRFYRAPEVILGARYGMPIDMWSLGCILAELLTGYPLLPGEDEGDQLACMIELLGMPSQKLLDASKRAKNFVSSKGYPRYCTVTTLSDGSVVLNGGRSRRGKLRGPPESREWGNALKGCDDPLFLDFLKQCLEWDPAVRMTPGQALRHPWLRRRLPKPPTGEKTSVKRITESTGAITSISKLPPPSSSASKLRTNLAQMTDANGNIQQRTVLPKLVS

[3] = target: Serine/threonine-protein kinase MARK1 (Homo sapiens) (UniProt Q9P0L2); experiment: Inhibition of human MARK1 at 18.6 nM by HotSpot assay relative to control
[4] = target: Platelet-derived growth factor receptor beta (Homo sapiens) (UniProt P09619); experiment: Inhibition of human PDGFRb at 18.6 nM by HotSpot assay relative to control
[5] = target: T2, Serine/threonine-protein kinase D1 (Homo sapiens) (UniProt Q15139); experiment: Inhibition of human PRKD1 at 1.82 nM by HotSpot assay relative to control
T2 sequence (whole entry): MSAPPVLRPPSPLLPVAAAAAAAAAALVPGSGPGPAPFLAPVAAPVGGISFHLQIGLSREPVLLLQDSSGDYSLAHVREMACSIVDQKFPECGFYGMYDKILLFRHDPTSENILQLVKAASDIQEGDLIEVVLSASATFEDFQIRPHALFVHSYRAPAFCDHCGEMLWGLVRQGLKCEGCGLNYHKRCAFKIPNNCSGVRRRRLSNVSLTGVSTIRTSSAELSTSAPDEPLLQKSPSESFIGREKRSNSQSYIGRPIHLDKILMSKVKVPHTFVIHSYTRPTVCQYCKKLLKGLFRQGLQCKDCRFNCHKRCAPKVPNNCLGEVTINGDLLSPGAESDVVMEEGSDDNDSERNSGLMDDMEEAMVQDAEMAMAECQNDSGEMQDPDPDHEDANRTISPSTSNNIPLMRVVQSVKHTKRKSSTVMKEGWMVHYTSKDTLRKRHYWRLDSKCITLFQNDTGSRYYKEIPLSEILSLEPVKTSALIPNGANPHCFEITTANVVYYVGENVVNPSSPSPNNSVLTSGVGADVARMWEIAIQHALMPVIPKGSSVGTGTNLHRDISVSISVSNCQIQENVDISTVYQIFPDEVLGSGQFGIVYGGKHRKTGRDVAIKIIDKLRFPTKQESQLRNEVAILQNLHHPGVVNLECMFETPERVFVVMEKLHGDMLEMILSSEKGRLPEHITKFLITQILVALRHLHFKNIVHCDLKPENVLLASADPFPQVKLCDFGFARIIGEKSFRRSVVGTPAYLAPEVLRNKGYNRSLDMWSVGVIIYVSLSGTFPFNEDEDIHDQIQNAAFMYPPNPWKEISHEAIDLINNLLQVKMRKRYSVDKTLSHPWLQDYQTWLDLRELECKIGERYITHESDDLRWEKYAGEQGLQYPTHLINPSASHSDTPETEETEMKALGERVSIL

[6] = target: T3, Serine/threonine-protein kinase Sgk1 (Homo sapiens) (UniProt O00141); experiment: Inhibition of human SGK1 at 1.82 nM by HotSpot assay relative to control
T3 sequence (whole entry): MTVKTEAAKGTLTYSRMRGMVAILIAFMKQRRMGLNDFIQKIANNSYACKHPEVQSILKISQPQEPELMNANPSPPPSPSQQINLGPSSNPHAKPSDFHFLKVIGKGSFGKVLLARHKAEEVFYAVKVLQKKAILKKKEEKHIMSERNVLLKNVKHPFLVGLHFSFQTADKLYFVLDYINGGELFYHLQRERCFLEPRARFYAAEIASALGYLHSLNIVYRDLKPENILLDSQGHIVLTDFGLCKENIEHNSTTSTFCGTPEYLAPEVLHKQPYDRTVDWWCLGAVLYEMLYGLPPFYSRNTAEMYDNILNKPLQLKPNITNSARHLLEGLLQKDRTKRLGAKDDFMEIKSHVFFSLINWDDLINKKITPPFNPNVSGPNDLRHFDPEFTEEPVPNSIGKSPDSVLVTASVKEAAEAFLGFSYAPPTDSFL

[7] = target: T4, Myotonin-protein kinase (Homo sapiens) (UniProt Q09013); experiment: Inhibition of human DMPK at 1.82 nM by HotSpot assay relative to control
T4 sequence (whole entry): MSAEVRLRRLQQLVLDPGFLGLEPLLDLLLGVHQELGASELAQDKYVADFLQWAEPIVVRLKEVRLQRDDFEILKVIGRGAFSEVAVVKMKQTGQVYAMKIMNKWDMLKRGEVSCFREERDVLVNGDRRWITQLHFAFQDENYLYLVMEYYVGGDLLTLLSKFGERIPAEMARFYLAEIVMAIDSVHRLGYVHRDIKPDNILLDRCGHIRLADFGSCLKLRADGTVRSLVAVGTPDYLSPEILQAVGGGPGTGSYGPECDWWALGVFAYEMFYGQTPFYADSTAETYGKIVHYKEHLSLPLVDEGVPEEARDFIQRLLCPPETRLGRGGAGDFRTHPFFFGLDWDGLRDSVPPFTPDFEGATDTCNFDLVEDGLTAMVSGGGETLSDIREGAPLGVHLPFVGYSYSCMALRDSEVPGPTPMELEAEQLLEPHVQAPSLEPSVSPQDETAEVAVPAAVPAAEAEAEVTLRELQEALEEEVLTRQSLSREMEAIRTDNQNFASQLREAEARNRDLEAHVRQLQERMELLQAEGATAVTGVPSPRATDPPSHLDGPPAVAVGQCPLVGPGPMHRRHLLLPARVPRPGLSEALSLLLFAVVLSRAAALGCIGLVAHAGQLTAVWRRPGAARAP

Platelet-derived growth factor receptor beta (Homo sapiens), sequence (P09619 whole entry): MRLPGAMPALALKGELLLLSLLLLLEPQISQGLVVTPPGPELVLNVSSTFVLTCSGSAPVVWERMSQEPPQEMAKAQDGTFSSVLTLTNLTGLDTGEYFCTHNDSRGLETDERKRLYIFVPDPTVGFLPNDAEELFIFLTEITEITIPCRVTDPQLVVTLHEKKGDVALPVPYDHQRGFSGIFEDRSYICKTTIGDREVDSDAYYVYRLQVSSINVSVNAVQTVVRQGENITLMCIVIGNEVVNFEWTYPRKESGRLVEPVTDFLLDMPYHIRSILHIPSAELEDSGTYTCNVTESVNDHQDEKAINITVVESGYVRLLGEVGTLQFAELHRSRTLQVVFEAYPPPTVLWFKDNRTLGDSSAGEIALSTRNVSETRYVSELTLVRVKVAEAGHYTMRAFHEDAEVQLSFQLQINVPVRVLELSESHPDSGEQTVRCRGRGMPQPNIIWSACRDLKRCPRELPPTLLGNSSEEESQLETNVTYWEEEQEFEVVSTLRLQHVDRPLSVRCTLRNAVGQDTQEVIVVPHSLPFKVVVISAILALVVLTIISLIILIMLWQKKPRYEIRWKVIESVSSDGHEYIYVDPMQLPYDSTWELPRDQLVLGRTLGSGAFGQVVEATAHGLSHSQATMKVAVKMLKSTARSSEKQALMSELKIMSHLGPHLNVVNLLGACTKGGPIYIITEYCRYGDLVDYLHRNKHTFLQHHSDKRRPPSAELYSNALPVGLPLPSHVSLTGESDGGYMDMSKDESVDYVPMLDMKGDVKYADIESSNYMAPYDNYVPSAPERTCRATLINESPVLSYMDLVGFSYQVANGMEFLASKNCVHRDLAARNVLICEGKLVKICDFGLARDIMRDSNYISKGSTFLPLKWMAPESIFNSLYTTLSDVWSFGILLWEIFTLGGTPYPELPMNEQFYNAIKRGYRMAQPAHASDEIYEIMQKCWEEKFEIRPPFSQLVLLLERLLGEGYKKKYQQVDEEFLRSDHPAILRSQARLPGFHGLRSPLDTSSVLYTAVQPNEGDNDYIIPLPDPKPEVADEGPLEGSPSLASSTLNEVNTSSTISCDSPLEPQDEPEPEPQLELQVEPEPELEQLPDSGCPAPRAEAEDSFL
Serine/threonine-protein kinase MARK2 (Homo sapiens), sequence (Q7KZI7 whole entry): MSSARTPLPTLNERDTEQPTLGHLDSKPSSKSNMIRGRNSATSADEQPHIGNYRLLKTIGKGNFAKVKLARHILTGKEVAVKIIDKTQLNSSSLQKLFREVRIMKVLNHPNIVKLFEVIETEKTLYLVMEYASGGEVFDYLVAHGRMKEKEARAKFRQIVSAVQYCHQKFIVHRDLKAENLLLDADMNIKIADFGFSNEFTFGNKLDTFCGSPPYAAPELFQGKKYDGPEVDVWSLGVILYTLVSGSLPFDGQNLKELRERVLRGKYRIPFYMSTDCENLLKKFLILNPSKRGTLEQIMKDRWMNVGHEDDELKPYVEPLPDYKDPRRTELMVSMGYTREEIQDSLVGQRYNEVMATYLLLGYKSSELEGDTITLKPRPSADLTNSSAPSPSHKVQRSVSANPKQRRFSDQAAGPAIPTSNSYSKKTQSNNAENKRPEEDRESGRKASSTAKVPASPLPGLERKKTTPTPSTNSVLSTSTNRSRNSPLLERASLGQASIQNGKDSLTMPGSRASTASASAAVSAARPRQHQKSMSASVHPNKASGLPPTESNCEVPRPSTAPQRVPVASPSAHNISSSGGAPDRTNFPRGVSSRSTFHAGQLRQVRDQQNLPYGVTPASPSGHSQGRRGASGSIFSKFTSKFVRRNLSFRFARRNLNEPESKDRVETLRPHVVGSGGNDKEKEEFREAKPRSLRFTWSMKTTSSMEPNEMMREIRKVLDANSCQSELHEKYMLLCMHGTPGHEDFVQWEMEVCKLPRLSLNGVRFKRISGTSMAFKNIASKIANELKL
Serine/threonine-protein kinase MARK1 (Homo sapiens), sequence (Q9P0L2 whole entry, looked up): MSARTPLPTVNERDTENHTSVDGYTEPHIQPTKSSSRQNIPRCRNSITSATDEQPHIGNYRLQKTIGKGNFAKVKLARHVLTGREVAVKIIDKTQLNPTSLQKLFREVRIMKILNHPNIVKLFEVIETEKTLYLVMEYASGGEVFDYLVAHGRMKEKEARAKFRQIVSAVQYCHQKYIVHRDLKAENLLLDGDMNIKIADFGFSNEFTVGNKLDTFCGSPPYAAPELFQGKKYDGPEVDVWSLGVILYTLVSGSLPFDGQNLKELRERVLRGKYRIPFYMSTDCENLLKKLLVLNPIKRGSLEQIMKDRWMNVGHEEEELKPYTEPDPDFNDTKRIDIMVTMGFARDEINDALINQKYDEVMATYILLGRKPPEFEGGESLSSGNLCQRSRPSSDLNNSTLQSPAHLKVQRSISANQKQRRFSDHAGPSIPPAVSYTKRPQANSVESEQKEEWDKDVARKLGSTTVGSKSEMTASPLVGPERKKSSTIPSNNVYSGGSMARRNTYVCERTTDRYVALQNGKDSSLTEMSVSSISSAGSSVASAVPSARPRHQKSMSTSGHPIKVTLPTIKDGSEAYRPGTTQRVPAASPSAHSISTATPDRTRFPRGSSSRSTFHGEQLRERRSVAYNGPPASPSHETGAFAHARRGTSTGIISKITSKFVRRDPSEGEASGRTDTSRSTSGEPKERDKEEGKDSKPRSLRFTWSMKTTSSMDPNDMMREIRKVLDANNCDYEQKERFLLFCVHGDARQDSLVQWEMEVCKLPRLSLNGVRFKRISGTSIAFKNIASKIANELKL

| inhibition [1] | inhibition [2] | inhibition [3] | inhibition [4] | inhibition [5] | inhibition [6] | inhibition [7] | Compound |
| --- | --- | --- | --- | --- | --- | --- | --- |
| -3.78% | -1.48% | -7.27% | 8.57% |  |  |  | C[C@]1(O)C[C@@H](c2nc(-c3ccc4ccc(-c5ccccc5)nc4c3)c3c(N)nccn32)C1 |
|  |  |  |  | -5.1% | -2.56% | 2.2% | C[C@@]1(C(=O)Nc2ccc(F)nc2)CCCN1c1nc(Nc2cc(C3CC3)n[nH]2)c2cccn2n1 |
